Consider 4 molecules from paper PMC9810167, “Novel dual LSD1/HDAC6 inhibitor for the treatment of cancer” (PLOS ONE, 2023).

Like-named read-outs stand apart in the source and are kept apart here.

The test system of one data set is MM1.S xenograft. The experiment in a line: MM1.S multiple myeloma xenograft model. It is filed as in vivo.
A further data set deals with HEL 92.1.7. The experiment in a line: Cell proliferation assay (Alamar Blue). It is filed as cell-based, human. To be noted: for EC50: Homo sapiens. How it is done:
Cells were seeded in NUNC 96-well tissue culture plates (Life Technologies) in […] culture medium and incubated at 37°C/ 5% CO2 to adhere to plastic for 18–24 h. […] One set of plates (designated for the 144 h read out) were centrifuged at low speed for 30 seconds, and respective compounds were replenished in fresh media and incubated for another 68–72 h at 37°C/ 5% CO2. […] The inhibition curve was then fitted by plotting % inhibition against log concentration in GraphPad Prism 5.0 (GraphPad Software, Inc.) and the GI50 value of compound was determined. Data are representative of at least two independent experiments.
(In general: Alamar Blue is a resazurin reagent that responds to reducing activity.)

The next data set has as its system class I HDACs. On the set-up: method as in PMID 22262760. The settings on record: read-out: potency on class I HDACs; cited from earlier work.

On to `Nc1cccc2c1C(=O)N(C1CCC(=O)NC1=O)C2=O` (stereo not shown) [Pomalidomide, reference compound], for which the tolerability entry in the data set with MM1.S xenograft (single agents (Bortezomib 0.5 mg/kg IP BIW; Pomalidomide 2.5 mg/kg PO 5x/week)) is on record as “well tolerated”.
Regarding `CC(C)C[C@H](NC(=O)[C@H](Cc1ccccc1)NC(=O)c1cnccn1)B(O)O` [Bortezomib, reference compound], in the data set on MM1.S xenograft (Bortezomib 0.5 mg/kg IP BIW, mice dead/group), the mortality is 1/7.
Turning to `N[C@H]1CC[C@H](N[C@@H]2C[C@H]2c2ccccc2)CC1` [Iadademstat], the “anti-proliferative EC50, 72 h” value with HEL 92.1.7 (HEL92.1.7, 3 days (72 h) of incubation) is on record as “did not show any measurable anti-proliferative activity”. Further, in the data set with HEL 92.1.7 (HEL92.1.7, 6 days of incubation, up to 10 μM), the “cell growth inhibition reached (plateau)” value was 50–60%.
Take `O=C(CCCCCCNC(=O)c1cnc(N(c2ccccc2)c2ccccc2)nc1)NO` [Ricolinostat]: the EC50 (usually the concentration at which the effect is half-maximal) in the data set on HEL 92.1.7 (HEL 92.1.7, read-out: anti-proliferative EC50, HEL92.1.7, 3 days (72 h) of incubation) was 4.4 µM; in the data set with HEL 92.1.7 (HEL 92.1.7, Leukemia, 144 h, read-out: EC50, 144hr), 3.7 µM. The IC50 in the data set with class I HDACs was roughly 0.05 µM.
